# In patent US20240327456A1, “CANCER THERAPEUTICS” (UNIVERSITAT DE BARCELONA, priority 2021, published 2024):
# Square brackets hold non-standard residues; d marks the D form. Peptide text beside a SMILES is read from it. * marks the point of attachment. Chg = N[CH](C(=O)O)C1CCCCC1; X1 = C1CCC2(CC1)CCN(*)CC2; PhAc = O=C(Cc1ccccc1)*
# Columns and labels:
# [1] = Solubility in PBS with 15% β-cyclodextrin; format: physicochemical; settings: 1 mM, 24 hours agitation, supernatant by HPLC; mean±SD
# Procedure: xxxxx Furthermore, an additional effort was done to reevaluate those peptidomimetics from the first generation that were not soluble in the in vitro assay conditions or formed aggregates as described above when incubated with the RPE cells.
# We then put these peptidomimetics under constant agitation for 24 hours. […] Data are expressed as the mean±SD.
# [2] = Solubility when diluted in cell medium (in vitro assay conditions); settings: cell culture assay conditions
compound,measurement,setting,value
CC(C)CC(NC(=O)C(Cc1c[nH]c2ccccc12)NC(=O)C(NC(=O)C(CCCCN)NC(=O)Cc1ccccc1)C1CCCCC1)C(=O)N1CCC2(CCCCC2)CC1 (centres unmarked) [IP-14-06] (PhAc-K[Chg]WL-X1; configuration not given here),Conc. in PBS β-cyclodextrin 15%,[1],844 ± 4 µM
same,Solubility when diluted in cell medium,[2],not soluble
